{"source": "patent US7235536B2", "about": "“Cellulose sulfate and other sulfated polysaccharides to prevent and treat papilloma virus infection and other infections” (Rush Presbyterian-St. Luke's Medical Center, priority 2000, dated 2007)", "key": {"BPV-1": {"test_system": "BPV-1", "experiment": "BPV-1 focus-forming assay, virus preincubated with compound (Table C)", "assay_type": "cell-based, bovine papilloma virus", "conditions": "C127 cell line", "description": "In a similar study using the BPV-1 focus forming assay, the effect of the cellulose sulfate and dextran sulfate on BPV was tested. In this study, cellulose sulfate tested was as described above. Dextran sulfate used was from Dextran Products Limited (Lot DSM-122) prepared using dextan of average Mr of about 500,000 (based on viscosity) and is estimated to have a final average Mr greater than about 500,000 and may be about 1 to 1.1 million.\nMicrobicidal activity of the compounds was tested using the well-characterized BPV-1 focus-forming assay (Dvoretzky, I., R. Shober, S. K. Chattopadhyay, and D. R. Lowy. 1980. A quantitative in vitro focus assay for bovine papilloma virus. Virology 103:369-375), with modifications for microbicide testing (Hermonat, P. L., (1992) supra; Howett, M. K., et al. (1999) supra. The terms inhibiting or microbicidal activity when used are intended to refer broadly to microbe infection and/or microbe inactivating effect.\nAliquots of BPV-1 containing approximately 100-200 focus-forming units were preincubated with dilutions of compounds for 10 min at 37° C. prior to addition to cultures of mouse C127 cells. Cultures of C127 cells were set up in T25 tissue culture flasks (Corning, N.Y.), containing 3×10^5 cells per flask. Virus-compound mixtures in a total of 50 μl were then added to flasks in 1 ml of media, and an additional 3 ml of media added after 24 hrs culture. Media was changed every 3-4 days for a period of 2 weeks. Foci were enumerated following staining of the monolayer with crystal violet and counting stained foci microscopically. Each concentration of compound was tested in duplicate, and the mean±SD of foci number for the preincubation virus-drug concentration for each compound is shown below as Table C.\nClones were derived from the parental C127 cell line because of the consistent failure of BPV-1 to induce foci following several cell passages of the uncloned parental cell line. One clone, labeled C127-D10, which produced foci upon BPV-1 infection, was chosen for a repeat testing of the compounds. When this clone was tested for microbicidal activity, less compound was required to achieve high reduction in BPV-1-induced foci when compared to the uncloned parental-C127 cells."}, "[1]": {"test_system": "Fusobacterium gonidiaformans", "experiment": "Agar method MIC", "assay_type": "cell-based", "conditions": "for CS MIC: Agar"}, "Porphyromonas levii": {"test_system": "Porphyromonas levii", "experiment": "Broth method MIC", "assay_type": "cell-based"}, "[2]": {"test_system": "Porphyromonas asaccharolytica", "experiment": "Agar method MIC", "assay_type": "cell-based", "conditions": "for CS MIC: Agar"}, "[3]": {"test_system": "Peptostreptococcus asaccharolyticus", "experiment": "Broth method MIC", "assay_type": "cell-based", "conditions": "for CS MIC: Broth (study 2)"}, "[4]": {"conditions": "Example 8, agar, 48 hours anaerobic, highest tested 625 μg/ml"}}}
{"substance": "sodium cellulose sulfate", "values": [{"measurement": "inhibition of papilloma virus infectivity", "setting": "BPV-1; 1 mg/ml", "value": "complete inhibition"}, {"measurement": "inhibition of papilloma virus infectivity", "setting": "BPV-1; 10 to 100 μg/ml", "value": "moderate to high inhibition"}, {"measurement": "lowest concentration of compound that inhibited growth", "setting": "[1]; [4]", "value": 156, "unit": "µg/mL"}, {"measurement": "CS MIC", "setting": "[1]; rma# 11423", "value": ">0.625", "unit": "mg/mL"}, {"measurement": "CS MIC", "setting": "[1]; rma# 11653", "value": 0.156, "unit": "mg/mL"}, {"measurement": "growth inhibition", "setting": "Porphyromonas levii; both strains", "value": "inhibited"}, {"measurement": "CS MIC", "setting": "Porphyromonas levii; rma# 11425, Broth (study 1)", "value": 0.6, "unit": "mg/mL"}, {"measurement": "CS MIC", "setting": "Porphyromonas levii; rma# 11425, Broth (study 2)", "value": 0.6, "unit": "mg/mL"}, {"measurement": "CS MIC", "setting": "Porphyromonas levii; rma# 11601, Broth (study 1)", "value": 0.3, "unit": "mg/mL"}, {"measurement": "CS MIC", "setting": "Porphyromonas levii; rma# 11601, Broth (study 2)", "value": 0.3, "unit": "mg/mL"}, {"measurement": "lowest concentration of compound that inhibited growth", "setting": "[2]; [4]", "value": 80, "unit": "µg/mL"}, {"measurement": "CS MIC", "setting": "[2]; rma# 11612", "value": 0.08, "unit": "mg/mL"}, {"measurement": "CS MIC", "setting": "[2]; rma# 11656", "value": ">0.625", "unit": "mg/mL"}, {"measurement": "growth inhibition", "setting": "[3]; all strains", "value": "inhibited"}, {"measurement": "CS MIC", "setting": "[3]; rma# 11587", "value": 10, "unit": "mg/mL"}, {"measurement": "CS MIC", "setting": "[3]; rma# 11607", "value": 10, "unit": "mg/mL"}]}
